In patent publication US9102678B2, “Compounds and methods for inhibiting mitotic progression” (Millennium Pharmaceuticals, Inc., priority 2004, dated 2015):
pIC50: −log10 of the molar value.

Target: T1, recombinant murine Aurora A enzyme (Mus musculus, UniProt P97477)
T1 construct: hexahistidine (His6) (N); made in house; host or cells: insect cells, baculovirus (Bac-to-Bac, Invitrogen)
Assay: Aurora A DELFIA Kinase Assay
Format: biochemical
Conditions: mouse Aurora A, 250 μM ATP; threshold less than or equal to 100 nM; read-out: IC50

T1 sequence (P97477 whole entry): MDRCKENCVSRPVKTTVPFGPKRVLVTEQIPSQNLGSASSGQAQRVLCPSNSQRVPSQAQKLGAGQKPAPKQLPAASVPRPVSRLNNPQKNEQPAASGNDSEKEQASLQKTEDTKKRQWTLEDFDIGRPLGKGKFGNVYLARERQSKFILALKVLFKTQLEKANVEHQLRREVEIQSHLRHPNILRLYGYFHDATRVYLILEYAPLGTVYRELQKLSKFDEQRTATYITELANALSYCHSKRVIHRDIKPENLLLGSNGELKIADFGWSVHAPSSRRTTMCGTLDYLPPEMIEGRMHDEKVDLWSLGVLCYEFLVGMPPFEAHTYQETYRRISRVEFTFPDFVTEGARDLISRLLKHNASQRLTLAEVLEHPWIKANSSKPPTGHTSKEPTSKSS

pIC50, ≥ 7.00:
CNC1CCN(C(=O)c2ccc(Nc3ncc4c(n3)-c3ccc(Cl)cc3C(c3ccccn3)=NC4)cc2)CC1 [Compound I-316, 9-chloro-N-(4-{[4-(methylamino)piperidin-1-yl]carbonyl}phenyl)-7-pyridin-2-yl-5H-pyrimido[5,4-d][2]benzazepin-2-amine]
NC(=O)C1CN(C(=O)c2ccc(Nc3ncc4c(n3)-c3ccc(Cl)cc3C(c3c(F)cccc3F)=NC4)cc2)CCN1 (stereo not shown) [Compound I-317, 4-(4-{[9-chloro-7-(2,6-difluorophenyl)-5H-pyrimido[5,4-d][2]benzazepin-2-yl]amino}benzoyl)piperazine-2-carboxamide]
NC1CCN(C(=O)c2ccc(Nc3ncc4c(n3)-c3ccc(Cl)cc3C(c3c(F)cccc3F)=NC4)cc2Cl)C1 (stereo not shown) [Compound I-318]
O=C(Nc1ccc(Nc2ncc3c(n2)-c2ccc(Cl)cc2C(c2c(F)cccc2F)=NC3)cc1)C1CCNCC1 [Compound I-319, N-(4-{[9-chloro-7-(2,6-difluorophenyl)-5H-pyrimido[5,4-d][2]benzazepin-2-yl]amino}phenyl)piperidine-4-carboxamide]
CC1CN(C(=O)c2ccc(Nc3ncc4c(n3)-c3ccc(Cl)cc3C(c3ccc(F)cc3F)=NC4)cc2)CC(C)N1 (stereo not shown) [Compound I-321, 9-chloro-7-(2,4-difluorophenyl)-N-{4-[(3,5-dimethylpiperazin-1-yl)carbonyl]phenyl}-5H-pyrimido[5,4-d][2]benzazepin-2-amine]
CC1CN(C(=O)c2ccc(Nc3ncc4c(n3)-c3ccc(Cl)cc3C(c3c(F)cccc3Cl)=NC4)cc2)CCN1 (stereo not shown) [Compound I-323, 9-chloro-7-(2-chloro-6-fluorophenyl)-N-{4-[(3-methylpiperazin-1-yl)carbonyl]phenyl}-5H-pyrimido[5,4-d][2]benzazepin-2-amine]
CC1CN(C(=O)c2ccc(Nc3ncc4c(n3)-c3ccc(Cl)cc3C(c3c(F)cccc3Cl)=NC4)cc2)CC(C)N1 (stereo not shown) [Compound I-324, 9-chloro-7-(2-chloro-6-fluorophenyl)-N-{4-[(3,5-dimethylpiperazin-1-yl)carbonyl]phenyl}-5H-pyrimido[5,4-d][2]benzazepin-2-amine]
CNC1CCN(C(=O)c2ccc(Nc3ncc4c(n3)-c3ccc(Cl)cc3C(c3c(F)cccc3Cl)=NC4)cc2)CC1 [Compound I-325, 9-chloro-7-(2-chloro-6-fluorophenyl)-N-(4-{[4-(methylamino)piperidin-1-yl]carbonyl}phenyl)-5H-pyrimido[5,4-d][2]benzazepin-2-amine]
CNC1CCCN(C(=O)c2ccc(Nc3ncc4c(n3)-c3ccc(Cl)cc3C(c3c(F)cccc3Cl)=NC4)cc2)C1 (stereo not shown) [Compound I-326, 9-chloro-7-(2-chloro-6-fluorophenyl)-N-(4-{[3-(methylamino)piperidin-1-yl]carbonyl}phenyl)-5H-pyrimido[5,4-d][2]benzazepin-2-amine]
CNC1CCN(C(=O)c2ccc(Nc3ncc4c(n3)-c3ccc(Cl)cc3C(c3c(F)cccc3Cl)=NC4)cc2)C1 (stereo not shown) [Compound I-327, 9-chloro-7-(2-chloro-6-fluorophenyl)-N-(4-{[3-(methylamino)pyrrolidin-1-yl]carbonyl}phenyl)-5H-pyrimido[5,4-d][2]benzazepin-2-amine]
COc1ccccc1C1=NCc2cnc(Nc3ccc(C(=O)N4CCNC(C)C4)cc3)nc2-c2ccc(Cl)cc21 (stereo not shown) [Compound I-329, 9-chloro-7-(2-methoxyphenyl)-N-{4-[(3-methylpiperazin-1-yl)carbonyl]phenyl}-5H-pyrimido[5,4-d][2]benzazepin-2-amine]
COc1ccccc1C1=NCc2cnc(Nc3ccc(C(=O)N4CC(C)NC(C)C4)cc3)nc2-c2ccc(Cl)cc21 (stereo not shown) [Compound I-330]
CNC1CCN(C(=O)c2ccc(Nc3ncc4c(n3)-c3ccc(Cl)cc3C(c3ccccc3OC)=NC4)cc2)CC1 [Compound I-331, 9-chloro-7-(2-methoxyphenyl)-N-(4-{[4-(methylamino)piperidin-1-yl]carbonyl}phenyl)-5H-pyrimido[5,4-d][2]benzazepin-2-amine]
CNC1CCN(C(=O)c2ccc(Nc3ncc4c(n3)-c3ccc(Cl)cc3C(c3ccccc3OC)=NC4)cc2)C1 (stereo not shown) [Compound I-332, 9-chloro-7-(2-methoxyphenyl)-N-(4-{[3-(methylamino)pyrrolidin-1-yl]carbonyl}phenyl)-5H-pyrimido[5,4-d][2]benzazepin-2-amine]
CNC1CCCN(C(=O)c2ccc(Nc3ncc4c(n3)-c3ccc(Cl)cc3C(c3ccccc3OC)=NC4)cc2)C1 (stereo not shown) [Compound I-333, 9-chloro-7-(2-methoxyphenyl)-N-(4-{[3-(methylamino)piperidin-1-yl]carbonyl}phenyl)-5H-pyrimido[5,4-d][2]benzazepin-2-amine]
CNC(=O)c1ccc(Nc2ncc3c(n2)-c2ccc(Cl)cc2C(c2c(F)cccc2F)=NC3)cc1 [Compound I-334, 4-{[9-chloro-7-(2,6-difluorophenyl)-5H-pyrimido[5,4-d][2]benzazepin-2-yl]amino}-N-methylbenzamide]
CC(=O)c1ccc(Nc2ncc3c(n2)-c2ccc(Cl)cc2C(c2c(F)cccc2F)=NC3)cc1 [Compound I-337, 1-(4-{[9-chloro-7-(2,6-difluorophenyl)-5H-pyrimido[5,4-d][2]benzazepin-2-yl]amino}phenyl)ethanone]
NCC#Cc1cccc(Nc2ncc3c(n2)-c2ccc(Cl)cc2C(c2c(F)cccc2F)=NC3)c1 [Compound I-338, N-[3-(3-aminoprop-1-yn-1-yl)phenyl]-9-chloro-7-(2,6-difluorophenyl)-5H-pyrimido[5,4-d][2]benzazepin-2-amine]
CNC(=O)C1(N)CCN(C(=O)c2ccc(Nc3ncc4c(n3)-c3ccc(Cl)cc3C(c3c(F)cccc3F)=NC4)cc2)CC1 [Compound I-341, 4-amino-1-(4-{[9-chloro-7-(2,6-difluorophenyl)-5H-pyrimido[5,4-d][2]benzazepin-2-yl]amino}benzoyl)-N-methylpiperidine-4-carboxamide]
CN(C)CC#Cc1cccc(Nc2ncc3c(n2)-c2ccc(Cl)cc2C(c2c(F)cccc2F)=NC3)c1 [Compound I-343, 9-chloro-7-(2,6-difluorophenyl)-N-{3-[3-(dimethylamino)prop-1-yn-1-yl]phenyl}-5H-pyrimido[5,4-d][2]benzazepin-2-amine]
NC(=O)C1(N)CCN(C(=O)c2ccc(Nc3ncc4c(n3)-c3ccc(Cl)cc3C(c3c(F)cccc3F)=NC4)cc2)CC1 [Compound I-350, 4-amino-1-(4-{[9-chloro-7-(2,6-difluorophenyl)-5H-pyrimido[5,4-d][2]benzazepin-2-yl]amino}benzoyl)piperidine-4-carboxamide]
CNC1CN(C(=O)c2ccc(Nc3ncc4c(n3)-c3ccc(Cl)cc3C(c3c(F)cccc3Cl)=NC4)cc2)C1 [Compound I-351, 9-chloro-7-(2-chloro-6-fluorophenyl)-N-(4-{[3-(methylamino)azetidin-1-yl]carbonyl}phenyl)-5H-pyrimido[5,4-d][2]benzazepin-2-amine]
